Data published in article PMC7738871, “Covalent modification of Keap1 at Cys77 and Cys434 by pubescenoside a suppresses oxidative stress-induced NLRP3 inflammasome activation in myocardial ischemia-reperfusion injury” (Theranostics, 2021).
pKd: −log10 of the molar value.

What was measured:
[1] = system: NLRP3 inflammasome; experiment: LPS plus ATP-induced NLRP3 inflammasome in RAW264.7; type: cell-based
Procedure: Based on the previous study, RAW264.7 cells were treated with different concentrations of PBA 1 h before 200 ng/mL lipopolysaccharide (LPS) stimulation for 6 h. Then, 2 mM adenosine triphosphate (ATP) was added and incubated for 20 min at 37 °C with 5% CO2.
(§1) Total protein was isolated from H9c2 cells, primary mouse cardiomyocytes, RAW264.7 cells and heart tissue using 1X RIPA buffer containing phosphatase and proteinase inhibitors at 4 °C. After measurement of the concentration, the cell lysates were separated by sodium dodecyl sulphate polyacrylamide gel electrophoresis (SDS-PAGE) and transferred to polyvinylidene fluoride (PVDF) membranes. The membranes were blocked in Tris-buffered saline-Tween 20 (TBST) buffer with 5% BSA for 1 h and incubated with primary antibodies (1:1000 dilution) overnight at 4 °C. After the membranes was washed by TBST buffer for three times, they were incubated with horseradish peroxidase (HRP)-conjugated secondary mouse or rabbit antibodies (1:3,000 dilution) at room temperature (RT) for 1.5 h and then detected by SuperEnhanced chemiluminescence (ECL) reaction reagents (GBCBIO Technologies Inc., Guangzhou, Guangdong, China). […] After letting the membranes stand for 1-2 min, the bands of the respective proteins were detected with the exposure time of 10 ~60 s.
According to previous experiences, Nrf2 nucleus translocation could be detected at 6 h. […]

[2] = system: H9c2 cells; experiment: MTT cytotoxicity, H9c2; type: cell-based, rat; details: under 240 μM, 48 h
Procedure: (§2) Cell viability was determined by MTT assays. PBA was prepared to a stock solution dissolved in dimethyl sulfoxide (DMSO). RAW264.7, H9c2 cells, primary mouse cardiomyocytes were treated with different doses of PBA, and DMSO only as control for 48 h for the toxicity. In addition, H9c2 cells or primary mouse cardiomyocytes were treated with the indicated doses of PBA, diazoxide as positive control, DMSO only as control, then cultured with or without OGD/R treatment. At the end of the experiments, MTT was added into each well at the concentration of 0.5 mg/ml, and incubated at 37 °C for 4 h. After removal of the supernatant, 150 μL of DMSO was added to solubilize the formazan products. And the solution was measured at the absorbance of 490 nm by a spectrophotometer (Thermo Fisher Scientific, MA, USA). The results of the MTT assay in all groups were normalized to the control group with DMSO only treatment.

[3] = biological target: T1, Keap1 C434S (Homo sapiens, UniProt Q14145, C434S); experiment: ITC titration of PBA with Keap1-C434S; type: binding; details: 25 ℃
T1 construct: His (N); made in house; host or cells: E. coli BL21 (DE3)
Procedure: (§3) The Keap1 was amplified by PCR using a human cDNA library, and was subcloned into the vector pET28-TEV, which contained one tobacco etch virus (TEV) protease cleavage site at the upstream multiple cloning site. The protein was expressed in E. coli BL21 (DE3) cells and incubated at 37 °C until the OD600 value reached 0.6, using 0.2 mM isopropyl β-D-1-thiogalactopyranoside (IPTG) overnight induction at 18 °C. The cells were isolated by centrifugation, resuspended in ice-cold lysis buffer and lysed by cryogenic overpressure cell breaker at 1,200 psi. The lysates were centrifuged for 60 min at 14,000 rpm to obtain the supernatant. Gravity flow purification of Keap1 protein was obtained at room temperature using 1 mL of Ni-NTA and eluted in buffer containing 250 mM imidazole, followed by 1 mL of HiTrap QHP for the second step purification. The final protein was purified and validated by Superdex 200 10/300GL resin.
(§4) The mutant plasmid DNA was obtained by PCR. The PCR products were cleaved by DpnI restriction enzymes. The restriction endonuclease-cleaved mixture was subsequently transformed into E. coli DH5α. Colonies were evaluated by colony PCR and sequenced. The mutant plasmid was transformed into E. coli BL21 (DE3) after successful sequencing. The steps for expression and purification of all recombinants were described above.
(§5) Isothermal calorimetry (ITC) titration experiments were performed at 25 °C. WT Keap1, Keap1 mutants and PBA were dissolved in binding buffer (40 mM Tris-HCl pH 8.0, 250 mM NaCl). In a typical experiment, 60 μL of PBA (1 mM) was injected 19 times at 2-min intervals from a stirring syringe into the sample cell containing 300 μL of WT protein or mutants (30 μM). The first injection was 0.4 μL of PBA, and the subsequent 18 injections were 2 μL each time. The site-binding models were determined by using MicroCal Origin software.

[4] = system: RAW264.7 macrophages; experiment: MTT cytotoxicity, RAW264.7; type: cell-based; details: RAW264.7, under 240 μM, 48 h
Procedure: as §2

[5] = system: NLRP3 inflammasome; experiment: OGD/R-induced NLRP3 inflammasome activation in primary cardiomyocytes; type: cell-based, mouse; details: OGD 3 h, reperfusion 18 h, dose-dependent
Procedure: The heart was removed from the neonatal C57BL/6 mice and cut into 1 mm^3 pieces in ice […] buffer. The tissues were digested with the mixture of 0.125% trypsin (Gibco, 15090-046) and 0.1% type II collagenase (Gibco, 17101-015) 6 min at 37 °C for three times until the tissues were completely digested. The cells were harvested and seeded in a dish. After 90 min of incubation, the cell culture medium was collected and centrifuged. The centrifuged cardiomyocytes were harvested, seeded on 0.1 % gelatin-coated culture plates with DMEM containing 10% FBS and […] Brdu, and incubated in a 37°C incubator.
as §1, with “After measurement of the concentration, the cell lysates were separated by sodium dodecyl sulphate polyacrylamide gel electrophoresis (SDS-PAGE) and transferred to polyvinylidene fluoride (PVDF) membranes. The membranes were blocked in Tris-buffered saline-Tween 20 (TBST) buffer with 5% BSA for 1 h and incubated with primary antibodies (1:1000 dilution) overnight at 4 °C.” left out

[6] = biological target: T2, Keap1 C38S (Homo sapiens, UniProt Q14145, C38S); experiment: ITC titration of PBA with Keap1-C38S; type: binding; details: 25 ℃
T2 construct: His (N); made in house; host or cells: E. coli BL21 (DE3)
Procedure: as §3, §4, §5

T1 sequence (Q14145 whole entry C434S): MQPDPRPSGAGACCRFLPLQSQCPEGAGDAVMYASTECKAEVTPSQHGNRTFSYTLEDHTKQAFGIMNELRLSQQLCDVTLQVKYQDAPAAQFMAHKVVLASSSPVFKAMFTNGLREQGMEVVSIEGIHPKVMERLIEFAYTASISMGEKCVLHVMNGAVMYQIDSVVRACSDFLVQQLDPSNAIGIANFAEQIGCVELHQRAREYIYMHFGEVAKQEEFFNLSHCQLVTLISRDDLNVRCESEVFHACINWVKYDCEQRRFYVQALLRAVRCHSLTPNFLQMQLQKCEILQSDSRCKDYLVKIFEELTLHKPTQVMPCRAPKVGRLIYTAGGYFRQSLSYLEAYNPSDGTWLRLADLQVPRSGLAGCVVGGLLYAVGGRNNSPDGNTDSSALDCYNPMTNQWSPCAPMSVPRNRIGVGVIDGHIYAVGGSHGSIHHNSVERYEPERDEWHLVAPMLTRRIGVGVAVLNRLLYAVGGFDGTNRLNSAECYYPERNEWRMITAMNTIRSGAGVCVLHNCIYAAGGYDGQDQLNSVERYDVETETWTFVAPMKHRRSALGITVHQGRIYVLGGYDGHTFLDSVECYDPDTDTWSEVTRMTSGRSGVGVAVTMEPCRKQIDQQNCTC
T2 sequence (Q14145 whole entry C38S): as the sequence (Q14145 whole entry C434S) above, with C38S, S434C counted along it

SMILES: C=C(COC(=O)C=Cc1ccc(O)c(O)c1)C(O)COC1OC(CO)C(O)C(O)C1O (stereo not drawn) [PBA, pubescenoside A]
- LPS/ATP-induced ACS and Caspase1 expression (immunofluorescent staining) ([1]; RAW264.7, 30 μM): significantly reduced
- LPS/ATP-mediated NLPR3 induction, cleaved-caspase1 and IL-1β ([1]; RAW264.7, PBA 1 h pretreatment, 200 ng/mL LPS 6 h, 2 mM ATP 20 min, western blot): attenuated
- cell toxicity (MTT) [2]: did not exhibit any cell toxicity
- pKd [3]: 4.86
- T△S [3]: 1.87 ± 0.00 kcal/mol
- △G [3]: -6.63 ± 0.00 kcal/mol
- △H [3]: -4.76 ± 0.367 kcal/mol
- cell toxicity (MTT) [4]: did not exhibit any cell toxicity
- OGD/R-induced inflammasome activation (NLRP3, cleaved-caspase1, mature IL-1β) [5]: substantially inhibited
- pKd [6]: 5.07
- T△S [6]: 2.32 ± 0.00 kcal/mol
- △H [6]: -4.59 ± 0.199 kcal/mol
